# Where two headings read alike, the source gives them in different places.
# Columns and labels:
# LeARG1 [1] = experiment: Effect of various compounds on arginase activity, LeARG1; assay type: biochemical, Lycopersicon esculentum (tomato)
# Protocol: (§1) Homogenates were centrifuged at 20,000×g for 10 min at 4° C., and the supernatants were used as the enzyme source. Recombinant LeARG enzyme was prepared as described above. Protein concentrations were determined as described above. Arginase activity was measured with a spectrophotometric assay for detection of urea (Alabadi et al., Plant Physiol. 112:1237-1244 (1996)), with minor modifications. The enzyme solution was activated with 1 mM MnCl2 at 37° C. for 60 min. […] Reactions were carried out at 37° C. for 20 min and stopped by the addition of 500 μl of 15% (v/v) perchloric acid. A 200-μl aliquot was mixed vigorously with 3 ml of acid mixture [9% (v/v) of phosphoric acid and 27% (v/v) of sulfuric acid] and 100 μl of 3% (w/v) α-isonitrosopropiophenone (Sigma) in 95% ethanol. This mixture was heated in a boiling water bath in the dark for 60 min and cooled for 10 min to room temperature. The OD540 was recorded on a Uvikon 933 spectrophotometer (Research Instruments, San Diego, Calif.). Substrate specificity tests were performed as described above with the exception that agmatine and other related compounds were added in place of L-arginine, to a final concentration of 250 mM. Substrates tested were obtained from Sigma. […] Inhibitor studies were conducted with test compounds that were dissolved in water and then diluted into the assay buffer at various concentrations prior to addition of enzyme. For example, 1 μl of a 5-mM L-NOHA stock was added to 489 μl of assay buffer, followed by addition of 10 μl of enzyme solution. The reaction was carried out as described above. L-NOHA was obtained from Cayman Chemical (Ann Arbor, Mich.). [table]
# LeARG2 [2] = experiment: Effect of various compounds on arginase activity, LeARG2; assay type: biochemical, Lycopersicon esculentum (tomato)
# Protocol: as §1
# LeARG1 [3] = experiment: Substrate specificity of tomato arginases (urea detection), recombinant LeARG1; assay type: biochemical, Lycopersicon esculentum (tomato); settings: 250 mM substrate; for Activity: 50 mM CHES pH 9.6, 2 mM MnCl2, 37° C., 30 min, mean and SD of triplet reactions; for activity relative to that obtained with L-arginine: pH 9.6
# Bovine arginase = target: T1, Bovine arginase (Bos taurus, UniProt Q2KJ64); experiment: Substrate specificity (urea detection), bovine arginase; assay type: biochemical; settings: 250 mM substrate; for Activity: 50 mM CHES pH 9.6, 2 mM MnCl2, 37° C., 30 min, mean and SD of triplet reactions; for activity relative to that obtained with L-arginine: pH 9.6
# T1 sequence (Q2KJ64 1-322): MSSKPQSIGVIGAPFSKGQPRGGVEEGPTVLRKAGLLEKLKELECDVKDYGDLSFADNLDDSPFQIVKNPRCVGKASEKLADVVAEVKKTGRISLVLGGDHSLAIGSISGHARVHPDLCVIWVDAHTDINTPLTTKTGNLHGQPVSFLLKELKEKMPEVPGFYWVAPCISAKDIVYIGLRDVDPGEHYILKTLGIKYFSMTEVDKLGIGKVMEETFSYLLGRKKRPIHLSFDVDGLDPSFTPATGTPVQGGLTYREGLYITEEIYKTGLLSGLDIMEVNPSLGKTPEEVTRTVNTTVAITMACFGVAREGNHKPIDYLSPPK
# LeARG2 [4] = experiment: Substrate specificity of tomato arginases (urea detection), recombinant LeARG2; assay type: biochemical, Lycopersicon esculentum (tomato); settings: 250 mM substrate; for Activity: 50 mM CHES pH 9.6, 2 mM MnCl2, 37° C., 30 min, mean and SD of triplet reactions; for activity relative to that obtained with L-arginine: pH 9.6
# threonine deaminase (TD) [5] = target: T2, threonine deaminase (TD) (Solanum lycopersicum, UniProt P25306); assay type: biochemical; settings: midgut extracts of larvae grown on WT plants; Ile up to mM
# T2 construct: from tissue; host or cells: desalted crude extracts of methyl-JA-treated tomato leaves, and of midgut content of M. sexta larvae reared on WT tomato
# T2 sequence (P25306 52-418): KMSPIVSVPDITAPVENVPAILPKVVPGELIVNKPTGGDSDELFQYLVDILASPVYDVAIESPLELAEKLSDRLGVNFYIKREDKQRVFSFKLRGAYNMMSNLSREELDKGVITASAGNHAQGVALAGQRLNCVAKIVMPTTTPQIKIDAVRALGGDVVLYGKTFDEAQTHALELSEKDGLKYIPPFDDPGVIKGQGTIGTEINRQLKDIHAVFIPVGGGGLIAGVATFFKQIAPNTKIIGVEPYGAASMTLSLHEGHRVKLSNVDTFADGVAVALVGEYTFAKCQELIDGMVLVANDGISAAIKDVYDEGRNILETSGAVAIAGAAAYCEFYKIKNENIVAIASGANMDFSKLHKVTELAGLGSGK
# threonine deaminase (TD) [6] = assay type: biochemical; settings: extracts of methyl-JA-treated tomato leaves
# LeARG2 [7] = experiment: RNA blot analysis of LeARG2 transcripts in treated tomato leaves; parameters: species or system Lycopersicon esculentum (tomato); settings: in vivo
# arginase activity = experiment: L-arginase activity in tomato leaf protein extracts; assay type: biochemical, Lycopersicon esculentum (tomato); settings: exogenous MeJA vapor
# LeARG1 [8] = experiment: RNA blot analysis of LeARG1 transcripts in treated tomato leaves; parameters: species or system Lycopersicon esculentum (tomato); settings: in vivo
# tomato arginase = experiment: Inhibition of tomato arginase by NOHA; assay type: biochemical, Lycopersicon esculentum (tomato)
# Protocol: as §1, with “Mich.).” for “Mich.). [table]”
# [9] = compound 5.0 mM, 25 mM L-arginine, % of control reaction
# [10] = compound 0.2 mM, 25 mM L-arginine, % of control reaction
structure (smiles),measurement,setting,value
O=C(O)CCS [3 -Mercaptopropionate],Relative activity (%),LeARG1 [1]; [9],24%
same,Relative activity (%),LeARG2 [2]; [9],26%
CC(S)C(=O)O (centres unmarked) [2-Mercaptopropionate],Relative activity (%),LeARG1 [1]; [9],38%
same,Relative activity (%),LeARG2 [2]; [9],38%
N=C(N)NCCC[C@@H](N)C(=O)O [D-Arginine],Activity,LeARG1 [3],195 ± 2 μmol/mg protein/h
same,activity relative to that obtained with L-arginine,LeARG1 [3],(2.2%)
same,Activity,Bovine arginase,32 ± 13 μmol/mg protein/h
same,activity relative to that obtained with L-arginine,Bovine arginase,(0.5%)
same,Activity,LeARG2 [4],250 ± 5 μmol/mg protein/h
same,activity relative to that obtained with L-arginine,LeARG2 [4],(3.6%)
"CC[C@H](C)[C@H](N)C(=O)O [Ile, isoleucine]",TD activity in the presence of Ile,threonine deaminase (TD) [5],not significantly inhibited
same,TD activity in the presence of Ile,threonine deaminase (TD) [6],strongly inhibited
OCCS [2-Mercaptoethanol],Relative activity (%),LeARG1 [1],81%
same,Relative activity (%),LeARG2 [2],80%
CC/C=C\CC1C(=O)CCC1CC(=O)OC (centres unmarked) [MeJA],LeARG2 expression in leaves,LeARG2 [7],strongly elicited
same,arginase activity in leaves after treatment,arginase activity,increase
same,LeARG1 expression in leaves,LeARG1 [8],low level
N=C(N)NCCC[C@H](N)C(=O)O [L-Arginine],Activity,LeARG1 [3],8848 ± 177 μmol/mg protein/h
same,activity relative to that obtained with L-arginine,LeARG1 [3],(100%)
same,Activity,Bovine arginase,6608 ± 351 μmol/mg protein/h
same,activity relative to that obtained with L-arginine,Bovine arginase,(100%)
same,Activity,LeARG2 [4],7016 ± 86 μmol/mg protein/h
same,activity relative to that obtained with L-arginine,LeARG2 [4],(100%)
O=C(O)CS [Mercaptoacetate],Relative activity (%),LeARG1 [1]; [9],28%
same,Relative activity (%),LeARG2 [2]; [9],26%
"NC(=NCCC[C@H](N)C(=O)O)NO [L-NOHA, N^G-hydroxy-L-arginine]",Relative activity (%),LeARG1 [1]; [10],7%
same,Relative activity (%),LeARG2 [2]; [10],5%
same,Ki lower than the Km for L-arginine,tomato arginase,more than 1000 fold
same,mode of inhibition,tomato arginase; plant and non-plant arginases,competitive inhibitor
same,Ki,tomato arginase; plant enzymes (LeARG1 and LeARG2),~14 µM
NCCC[C@H](N)C(=O)O [L- Ornithine],Relative activity (%),LeARG1 [1]; [9],72%
same,Relative activity (%),LeARG2 [2]; [9],88%
N=C(N)NCCCCN [Agmatine],Activity,LeARG1 [3],40 ± 3 μmol/mg protein/h
same,activity relative to that obtained with L-arginine,LeARG1 [3],(0.5%)
same,Activity,Bovine arginase,12 ± 2 μmol/mg protein/h
same,activity relative to that obtained with L-arginine,Bovine arginase,(0.2%)
same,Activity,LeARG2 [4],41 ± 6 μmol/mg protein/h
same,activity relative to that obtained with L-arginine,LeARG2 [4],(0.6%)
N=C(N)NCCCC[C@H](N)C(=O)O [Homoarginine],Activity,LeARG1 [3],1269 ± 2 μmol/mg protein/h
same,activity relative to that obtained with L-arginine,LeARG1 [3],(14%)
same,Activity,LeARG2 [4],916 ± 16 μmol/mg protein/h
same,activity relative to that obtained with L-arginine,LeARG2 [4],(13%)
N=C(N)NOCC[C@H](N)C(=O)O [Canavanine],Activity,LeARG1 [3],3 ± 1 μmol/mg protein/h
same,activity relative to that obtained with L-arginine,LeARG1 [3],(<0.1%)
same,Activity,Bovine arginase,14 ± 2 μmol/mg protein/h
same,activity relative to that obtained with L-arginine,Bovine arginase,(0.2%)
same,Activity,LeARG2 [4],9 ± 1 μmol/mg protein/h
same,activity relative to that obtained with L-arginine,LeARG2 [4],(0.1%)
"CC[C@H]1C=C(C(=O)N[C@@]2(C(=O)O)C[C@@H]2CC)[C@H]2CCC(=O)[C@H]2C1 [COR, coronatine]",LeARG2 expression in leaves,LeARG2 [7],necessary and sufficient
same,LeARG1 expression in leaves,LeARG1 [8],not induced

# From patent US9796984B2, “Protection against herbivores” (priority 2004, dated 2017)
